Substitutions are numbered along the chain they refer to. Values joined by “and” are separate entries in the source; they are usually repeats but may differ in a detail not shown here. Equal values may be shown once. “Also recorded” adds a separate entry of the source.
Experiments:
Type in all cases: cell-based
[1] = target: T1, double mutant (L260A + V264A) 5-HT3A receptor (Homo sapiens, UniProt P46098, L282A/V286A); test: Two-electrode voltage clamp of I5-HT in oocytes expressing double mutant (L260A/V264A) 5-HT3A receptor; settings: for Inhibitory effect of MDL 72222 on double mutant: 0.5 μM MDL 72222
T1 construct: expressed in transfected cells; host or cells: Xenopus laevis oocytes injected with cRNA
T1 sequence (P46098 24-478 L282A/V286A): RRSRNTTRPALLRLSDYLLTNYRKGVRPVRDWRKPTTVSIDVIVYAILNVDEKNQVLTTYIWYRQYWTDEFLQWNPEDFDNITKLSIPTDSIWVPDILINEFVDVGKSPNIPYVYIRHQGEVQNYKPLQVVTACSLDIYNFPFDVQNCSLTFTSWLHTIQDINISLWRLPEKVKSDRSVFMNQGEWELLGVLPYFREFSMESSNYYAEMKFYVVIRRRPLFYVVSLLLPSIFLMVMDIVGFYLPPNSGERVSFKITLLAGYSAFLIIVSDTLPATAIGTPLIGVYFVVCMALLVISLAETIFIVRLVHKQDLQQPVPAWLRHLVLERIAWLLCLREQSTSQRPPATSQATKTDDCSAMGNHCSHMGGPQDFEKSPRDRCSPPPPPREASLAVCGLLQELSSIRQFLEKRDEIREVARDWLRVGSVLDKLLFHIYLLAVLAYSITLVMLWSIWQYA
Protocol: (§1) The experimental procedure follows the approach outlined in the previous study, but is summarized briefly as follows. The plasmid containing the cDNAs for the 5-HT3A receptor was digested with Xho I restriction enzymes to linearize the cDNAs, which were then transcribed into cRNA using the Ambion mMESSAGE mMACHINE transcription kit with T7 RNA polymerase (Thermo Fisher Scientific Inc., USA). After transcription, the cRNA was dissolved in nuclease-free water, and its size and concentration were assessed via electrophoresis and spectrophotometry (DeNovix Inc., USA). The cRNA was aliquoted to a concentration of 1 μg/μl for storage at -80°C. Specific mutations were introduced into the 5-HT3A receptor using the QuickChange site-directed mutagenesis kit (Agilent Technologies Inc., USA) and PCR. The correctness of the mutations was verified by sequencing the final mutated DNA (CosmoGenetech Co., Republic of Korea).
(§2) The study utilized female Xenopus laevis frogs that were kept according to institutional protocols (CNU IACUC-YB-2016-07, July 2016), requiring a stable temperature of around 20°C and a 12-h light-dark cycle. Frog care adhered to standards from the Korean Xenopus Resource Center for Research (KXRCR000001). Anesthesia was induced by placing the frogs on ice, after which a small abdominal incision was made to extract oocytes, which were isolated using OR2 buffer (containing 82.5 mM NaCl, 2 mM KCl, 1 mM MgCl2, and 5 mM HEPES, pH 7.5) with collagenase. After rinsing with ND96 buffer (which includes 96 mM NaCl, 2 mM KCl, 1 mM MgCl2, 1.8 mM CaCl2, and 5 mM HEPES, pH 7.5), stage V-VI oocytes were selected and incubated at 18°C with ND96 incubation buffer containing sodium pyruvate and gentamicin for 2 to 3 days. Finally, 40 ng of 5HT3A cRNA was injected into each oocyte using a Nanoject automatic oocyte injector.
(§3) Two to three days post-RNA injection, the expression of the 5-HT3A protein in the oocytes was verified using a two-electrode oocyte clamp (OC-725C, Warner Instruments, LLC, USA). An agar bridge facilitated electrical connections, while ND96 buffer flowed continuously into the net chamber at 2 ml/min. Two glass microelectrodes filled with 3 M KCl (0.2 MΩ resistance) accessed the oocytes. To analyze the current-voltage relationship, voltages from −80 to +50 mV were applied, maintaining a holding potential of −80 mV. Current data were collected with a Digidata 1550 series device and analyzed using pCLAMP 10 software (Molecular Devices LLC, USA).
(§4) The Hill equation was used for graph fitting in OriginPro 7.0, as detailed below:
(§5) y = Vmin + (Vmax − Vmin) * [x]^n/([IC50]^n + [x]^n)
In this formula, Vmax and Vmin represent the highest and lowest current values, respectively. […]

[2] = target: T2, Human 5-hydroxytryptamine receptor 3A subtype (wild-type 5-HT3A receptor) (Homo sapiens, UniProt P46098); test: Two-electrode voltage clamp of 5-HT-induced inward current (I5-HT) in Xenopus oocytes expressing wild-type 5-HT3A receptor; settings: for Imax of 5-HT concentration-response: normalized to maximum 5-HT current
T2 construct: host or cells: Xenopus laevis oocytes injected with cRNA
T2 sequence (P46098 24-478): T1 sequence (P46098 24-478 L282A/V286A) with A259L, A263V
Protocol: as §1, §2, §3, §4, §5
In this formula, Vmax and Vmin represent the highest and lowest current values, respectively. […] The variable x signifies the concentration of these compounds, while n corresponds to the Hill coefficient.

[3] = target: T3, V264A mutant 5-HT3A receptor (Homo sapiens, UniProt P46098, V286A); test: Two-electrode voltage clamp of I5-HT in oocytes expressing V264A mutant 5-HT3A receptor; settings: 100 μM 5-HT
T3 construct: expressed in transfected cells; host or cells: Xenopus laevis oocytes injected with cRNA
T3 sequence (P46098 24-478 V286A): T1 sequence (P46098 24-478 L282A/V286A) with A259L
Protocol: as §1
as §2, with “Finally, 40 ng of 5HT3A cRNA was injected into each oocyte using a Nanoject automatic oocyte injector.” left out
(§6) Two to three days post-RNA injection, the expression of the 5-HT3A protein in the oocytes was verified using a two-electrode oocyte clamp (OC-725C, Warner Instruments, LLC, USA). […] Current data were collected with a Digidata 1550 series device and analyzed using pCLAMP 10 software (Molecular Devices LLC, USA). […]

[4] = target: T4, L260A mutant 5-HT3A receptor (Homo sapiens, UniProt P46098, L282A); test: Two-electrode voltage clamp of I5-HT in oocytes expressing L260A mutant 5-HT3A receptor; settings: 100 μM 5-HT
T4 construct: expressed in transfected cells; host or cells: Xenopus laevis oocytes injected with cRNA
T4 sequence (P46098 24-478 L282A): T1 sequence (P46098 24-478 L282A/V286A) with A263V
Protocol: as §1
as §2, with “Finally, 40 ng of 5HT3A cRNA was injected into each oocyte using a Nanoject automatic oocyte injector.” left out
as §6

[5] = −80 mV, unit not printed in Table 3, taken
[6] = 5-HT + 3 μM nicergoline, −80 mV
[7] = 5-HT + 30 μM nicergoline, −80 mV
[8] = wild type, co-treatment with 100 μM 5-HT, −80 mV

CN1[C@@H]2CC[C@H]1C[C@@H](OC(=O)c1cc(Cl)cc(Cl)c1)C2 [MDL 72222]
Inhibitory effect of MDL 72222 on double mutant ([1]; double mutant (L260A/V264A)): strongly inhibited | Inhibitory effect of MDL 72222 on double mutant ([1]; double mutant (L260A/V264A), listed as MDL72222): remained unaffected

NCCc1c[nH]c2ccc(O)cc12 [serotonin, 5-hydroxytryptamine]
Imax of 5-HT concentration-response ([2]; Control, 5-HT alone, −80 mV): 101.5 ± 4.6 | nH of 5-HT concentration-response ([2]; Control, 5-HT alone, −80 mV): 1.2 ± 0.1

CO[C@]12C[C@@H](COC(=O)c3cncc(Br)c3)CN(C)[C@@H]1Cc1cn(C)c3cccc2c13 [nicergoline]
nH [3]: 0.8 ± 0.2 | Maximum inhibition of I5-HT ([3]; −80 mV): 24% and 24.1 ± 0.8% | IC50 [3, 5]: 54.7 ± 5 µM | nH [4]: 1.2 ± 0.3 | Maximum inhibition of I5-HT ([4]; −80 mV): 51% and 51.9 ± 2.9% | IC50 [4, 5]: 57.4 ± 5.6 µM | Inhibitory effect of nicergoline on double mutant ([1]; 100 μM nicergoline, double mutant (L260A/V264A)): absent; also recorded: abolished | Maximum inhibition of I5-HT ([1]; L260A + V264A double mutant, 100 μM 5-HT, −80 mV): 2.7 ± 1.3% | 5-HT current when 5-HT applied immediately following nicergoline, % of the initial (baseline) current ([2]; 30 μM nicergoline applied alone, then 100 μM 5-HT at 0 sec washout): 56.2 ± 10.9% | Imax of 5-HT concentration-response [2, 6]: 70.6 ± 2.9 | nH of 5-HT concentration-response [2, 6]: 1.3 ± 0.4 | Imax of 5-HT concentration-response [2, 7]: 45.8 ± 8.6 | nH of 5-HT concentration-response [2, 7]: 1.2 ± 0.3 | Mode of antagonism versus 5-HT ([2]; 5-HT concentration-response in presence of 3 and 30 μM nicergoline): non-competitive | IC50 ([2]; wild type, co-treatment with 100 μM 5-HT, holding potential −80 mV): 7.7 ± 0.9 µM | Hill coefficient (nH) of inhibition [2, 8]: 1.4 ± 0.2 | Maximum inhibition of I5-HT [2, 8]: 91.1 ± 3.4% | Maximum inhibition of I5-HT ([2]; wild type, co-treatment with 100 μM 5-HT, −80 mV, listed as Nicergoline): approximately 91%
